Literature values in US20050049268A1, “Use of at least one abl, kit and/or platelet-derived growth factor receptor tyrosine kinases inhibitor for treating hair depigmentation” (priority 2001, published 2005).

What was measured:
[1] = test system: platelet-derived growth factor (PDGF) receptor tyrosine kinases; details: in vitro
α-PDGF receptor = α-PDGF receptor (Homo sapiens, UniProt P16234)
β-PDGF receptor = β-PDGF receptor (Homo sapiens, UniProt P09619)
c-Met = c-Met (Homo sapiens, UniProt P08581)
Jak-2 = Jak-2 (Homo sapiens, UniProt O60674)
[2] = target: receptor for stem cell factor (Homo sapiens, UniProt P10721)
Chain of receptor for stem cell factor (P10721 26-976): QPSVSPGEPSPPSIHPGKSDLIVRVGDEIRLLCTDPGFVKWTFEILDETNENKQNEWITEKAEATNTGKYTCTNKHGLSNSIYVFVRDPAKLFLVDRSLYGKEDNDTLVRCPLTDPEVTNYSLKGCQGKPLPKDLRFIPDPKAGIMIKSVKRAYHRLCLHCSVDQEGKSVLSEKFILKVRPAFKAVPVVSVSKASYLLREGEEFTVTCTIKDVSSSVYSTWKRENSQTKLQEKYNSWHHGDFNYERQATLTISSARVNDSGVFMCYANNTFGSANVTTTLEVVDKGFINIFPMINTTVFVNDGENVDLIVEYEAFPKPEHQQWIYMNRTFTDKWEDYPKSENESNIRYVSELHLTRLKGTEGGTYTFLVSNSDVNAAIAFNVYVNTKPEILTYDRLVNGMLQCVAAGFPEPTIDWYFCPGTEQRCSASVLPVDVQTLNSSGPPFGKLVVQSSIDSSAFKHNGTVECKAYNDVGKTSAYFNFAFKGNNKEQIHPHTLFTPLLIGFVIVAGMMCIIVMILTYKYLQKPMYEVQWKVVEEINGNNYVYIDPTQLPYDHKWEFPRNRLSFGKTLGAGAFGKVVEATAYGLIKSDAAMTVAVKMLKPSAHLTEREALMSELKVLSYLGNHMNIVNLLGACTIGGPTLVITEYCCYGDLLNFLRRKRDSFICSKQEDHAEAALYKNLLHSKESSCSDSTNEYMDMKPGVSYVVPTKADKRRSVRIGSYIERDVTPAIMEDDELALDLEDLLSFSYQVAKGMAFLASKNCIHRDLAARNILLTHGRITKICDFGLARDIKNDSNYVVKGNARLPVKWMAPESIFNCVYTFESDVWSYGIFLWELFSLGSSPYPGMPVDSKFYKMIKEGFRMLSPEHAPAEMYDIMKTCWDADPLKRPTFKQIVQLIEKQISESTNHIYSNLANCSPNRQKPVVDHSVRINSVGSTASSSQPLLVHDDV

Chain of α-PDGF receptor (P16234 24-1089): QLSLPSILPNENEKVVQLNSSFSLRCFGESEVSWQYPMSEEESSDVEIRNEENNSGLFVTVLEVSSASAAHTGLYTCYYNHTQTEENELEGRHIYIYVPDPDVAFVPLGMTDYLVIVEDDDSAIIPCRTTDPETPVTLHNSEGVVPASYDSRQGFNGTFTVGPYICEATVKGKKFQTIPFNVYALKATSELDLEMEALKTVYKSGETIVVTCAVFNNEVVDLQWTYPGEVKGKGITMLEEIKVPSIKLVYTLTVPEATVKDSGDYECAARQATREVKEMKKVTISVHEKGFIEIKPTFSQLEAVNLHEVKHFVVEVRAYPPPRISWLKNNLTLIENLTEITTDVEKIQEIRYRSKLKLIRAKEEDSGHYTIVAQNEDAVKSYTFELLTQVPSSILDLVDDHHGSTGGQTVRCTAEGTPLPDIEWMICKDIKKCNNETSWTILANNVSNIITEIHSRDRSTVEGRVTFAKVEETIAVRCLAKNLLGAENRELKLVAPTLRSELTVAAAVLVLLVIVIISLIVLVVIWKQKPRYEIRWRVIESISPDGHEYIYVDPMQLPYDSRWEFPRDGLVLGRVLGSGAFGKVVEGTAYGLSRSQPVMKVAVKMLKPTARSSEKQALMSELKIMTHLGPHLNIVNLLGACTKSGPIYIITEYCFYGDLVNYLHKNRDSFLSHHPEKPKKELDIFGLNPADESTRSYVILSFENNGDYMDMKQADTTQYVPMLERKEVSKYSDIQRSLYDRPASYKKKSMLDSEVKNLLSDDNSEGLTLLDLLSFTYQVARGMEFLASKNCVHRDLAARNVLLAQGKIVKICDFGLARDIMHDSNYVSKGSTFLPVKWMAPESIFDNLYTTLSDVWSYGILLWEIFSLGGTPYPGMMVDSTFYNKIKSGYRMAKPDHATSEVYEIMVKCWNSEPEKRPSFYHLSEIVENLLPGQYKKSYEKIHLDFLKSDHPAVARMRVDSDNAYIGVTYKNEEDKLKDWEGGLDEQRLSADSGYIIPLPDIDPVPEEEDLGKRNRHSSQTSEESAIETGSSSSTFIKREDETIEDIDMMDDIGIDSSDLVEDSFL
Chain of Jak-2 (O60674 whole entry, species assumed): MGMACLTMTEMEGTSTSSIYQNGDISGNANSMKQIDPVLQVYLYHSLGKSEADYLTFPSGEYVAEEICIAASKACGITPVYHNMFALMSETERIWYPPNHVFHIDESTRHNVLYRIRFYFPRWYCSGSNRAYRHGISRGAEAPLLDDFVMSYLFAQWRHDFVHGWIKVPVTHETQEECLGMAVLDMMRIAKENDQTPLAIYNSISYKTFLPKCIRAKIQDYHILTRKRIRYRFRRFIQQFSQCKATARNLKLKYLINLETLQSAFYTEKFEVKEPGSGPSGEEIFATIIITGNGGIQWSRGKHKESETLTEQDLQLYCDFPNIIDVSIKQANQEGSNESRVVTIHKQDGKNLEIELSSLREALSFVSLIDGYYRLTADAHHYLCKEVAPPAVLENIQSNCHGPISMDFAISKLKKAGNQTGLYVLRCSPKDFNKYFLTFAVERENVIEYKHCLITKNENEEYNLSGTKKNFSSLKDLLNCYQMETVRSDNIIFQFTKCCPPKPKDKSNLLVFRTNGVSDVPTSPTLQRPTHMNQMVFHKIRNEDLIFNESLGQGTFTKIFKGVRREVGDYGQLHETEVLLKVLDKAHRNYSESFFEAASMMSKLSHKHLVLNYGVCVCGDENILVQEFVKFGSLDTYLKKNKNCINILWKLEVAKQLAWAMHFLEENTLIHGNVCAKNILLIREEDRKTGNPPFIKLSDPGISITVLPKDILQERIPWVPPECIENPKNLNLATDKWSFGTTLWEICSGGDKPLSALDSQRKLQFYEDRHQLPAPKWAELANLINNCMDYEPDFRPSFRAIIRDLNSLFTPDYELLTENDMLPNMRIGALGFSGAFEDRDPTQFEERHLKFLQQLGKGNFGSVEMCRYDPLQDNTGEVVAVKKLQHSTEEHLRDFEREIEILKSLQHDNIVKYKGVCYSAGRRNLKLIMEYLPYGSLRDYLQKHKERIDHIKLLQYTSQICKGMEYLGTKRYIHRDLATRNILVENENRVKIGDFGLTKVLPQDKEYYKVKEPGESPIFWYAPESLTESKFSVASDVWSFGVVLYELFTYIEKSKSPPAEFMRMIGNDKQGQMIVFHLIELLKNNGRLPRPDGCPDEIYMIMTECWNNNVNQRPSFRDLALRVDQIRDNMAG
Chain of c-Met (P08581 25-1390): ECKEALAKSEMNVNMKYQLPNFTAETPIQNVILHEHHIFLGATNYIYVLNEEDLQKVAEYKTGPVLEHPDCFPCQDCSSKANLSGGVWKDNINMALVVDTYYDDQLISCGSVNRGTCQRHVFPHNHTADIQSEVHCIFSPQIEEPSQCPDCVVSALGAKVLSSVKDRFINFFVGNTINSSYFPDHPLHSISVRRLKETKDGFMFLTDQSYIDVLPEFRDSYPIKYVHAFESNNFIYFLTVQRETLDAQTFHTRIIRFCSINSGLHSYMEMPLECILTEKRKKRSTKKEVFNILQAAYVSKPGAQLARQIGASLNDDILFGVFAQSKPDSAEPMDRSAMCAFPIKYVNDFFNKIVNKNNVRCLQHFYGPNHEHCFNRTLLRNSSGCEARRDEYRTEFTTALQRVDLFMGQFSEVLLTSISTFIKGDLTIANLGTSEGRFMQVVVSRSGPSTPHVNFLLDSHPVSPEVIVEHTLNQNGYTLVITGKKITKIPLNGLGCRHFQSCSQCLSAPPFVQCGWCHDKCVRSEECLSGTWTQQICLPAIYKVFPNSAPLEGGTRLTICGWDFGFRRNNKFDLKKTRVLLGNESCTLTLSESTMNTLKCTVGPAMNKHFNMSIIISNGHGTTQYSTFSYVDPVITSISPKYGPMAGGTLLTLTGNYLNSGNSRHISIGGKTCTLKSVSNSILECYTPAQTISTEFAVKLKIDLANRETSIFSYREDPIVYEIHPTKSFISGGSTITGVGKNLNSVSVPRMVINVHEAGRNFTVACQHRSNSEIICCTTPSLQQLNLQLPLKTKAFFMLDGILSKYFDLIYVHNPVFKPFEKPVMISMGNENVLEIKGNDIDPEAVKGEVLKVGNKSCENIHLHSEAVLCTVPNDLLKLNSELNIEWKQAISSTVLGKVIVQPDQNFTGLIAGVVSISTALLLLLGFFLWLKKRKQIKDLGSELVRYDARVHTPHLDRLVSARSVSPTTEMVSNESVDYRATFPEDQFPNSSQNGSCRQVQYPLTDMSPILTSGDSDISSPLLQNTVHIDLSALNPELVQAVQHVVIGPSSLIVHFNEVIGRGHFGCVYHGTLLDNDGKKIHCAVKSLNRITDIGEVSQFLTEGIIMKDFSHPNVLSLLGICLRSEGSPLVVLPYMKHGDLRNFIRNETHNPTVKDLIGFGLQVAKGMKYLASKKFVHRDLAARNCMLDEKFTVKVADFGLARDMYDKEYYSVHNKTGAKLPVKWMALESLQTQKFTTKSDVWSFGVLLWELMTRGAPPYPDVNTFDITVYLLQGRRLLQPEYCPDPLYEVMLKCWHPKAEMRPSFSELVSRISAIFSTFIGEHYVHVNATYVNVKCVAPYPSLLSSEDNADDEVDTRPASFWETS

inhibition of kinase activity of α-PDGF receptor (α-PDGF receptor): potently inhibit | inhibition of kinase activity of β-PDGF receptor (β-PDGF receptor): potently inhibit | inhibition of c-Met (c-Met): no inhibition | inhibition of Jak-2 (Jak-2): no inhibition | inhibition of kinase activity of the receptor for stem cell factor [2]: potently inhibit
Compound: Cc1ccc(NC(=O)c2ccc(CN3CCN(C)CC3)cc2)cc1Nc1nccc(-c2cccnc2)n1 [Imatinib, N-{5-[4-(4-methyl-piperazino-methyl)-benzoylamido]-2-methylphenyl}-4-(3-pyridyl)-2-pyrimidine-amine]
inhibition of PDGF receptor tyrosine kinases [1]: selectively inhibits
